According to ChEMBL document CHEMBL5032528, “Development of novel tetrahydroisoquinoline-hydroxamate conjugates as potent dual SERDs/HDAC inhibitors for the treatment of breast cancer” (Eur J Med Chem, 2021):
Calls of active or inactive are those of the source. The rule behind the calls is not given here.

Key:
[1] = target: T1, Protein deacetylase HDAC6 (Homo sapiens, UniProt Q9UBN7); test: Inhibition of HDAC6 (unknown origin) using Ac-peptide as substrate preincubated for 15 mins followed by substrate addition and measured after 60 mins by fluorescence assay
T1 sequence (Q9UBN7 whole entry): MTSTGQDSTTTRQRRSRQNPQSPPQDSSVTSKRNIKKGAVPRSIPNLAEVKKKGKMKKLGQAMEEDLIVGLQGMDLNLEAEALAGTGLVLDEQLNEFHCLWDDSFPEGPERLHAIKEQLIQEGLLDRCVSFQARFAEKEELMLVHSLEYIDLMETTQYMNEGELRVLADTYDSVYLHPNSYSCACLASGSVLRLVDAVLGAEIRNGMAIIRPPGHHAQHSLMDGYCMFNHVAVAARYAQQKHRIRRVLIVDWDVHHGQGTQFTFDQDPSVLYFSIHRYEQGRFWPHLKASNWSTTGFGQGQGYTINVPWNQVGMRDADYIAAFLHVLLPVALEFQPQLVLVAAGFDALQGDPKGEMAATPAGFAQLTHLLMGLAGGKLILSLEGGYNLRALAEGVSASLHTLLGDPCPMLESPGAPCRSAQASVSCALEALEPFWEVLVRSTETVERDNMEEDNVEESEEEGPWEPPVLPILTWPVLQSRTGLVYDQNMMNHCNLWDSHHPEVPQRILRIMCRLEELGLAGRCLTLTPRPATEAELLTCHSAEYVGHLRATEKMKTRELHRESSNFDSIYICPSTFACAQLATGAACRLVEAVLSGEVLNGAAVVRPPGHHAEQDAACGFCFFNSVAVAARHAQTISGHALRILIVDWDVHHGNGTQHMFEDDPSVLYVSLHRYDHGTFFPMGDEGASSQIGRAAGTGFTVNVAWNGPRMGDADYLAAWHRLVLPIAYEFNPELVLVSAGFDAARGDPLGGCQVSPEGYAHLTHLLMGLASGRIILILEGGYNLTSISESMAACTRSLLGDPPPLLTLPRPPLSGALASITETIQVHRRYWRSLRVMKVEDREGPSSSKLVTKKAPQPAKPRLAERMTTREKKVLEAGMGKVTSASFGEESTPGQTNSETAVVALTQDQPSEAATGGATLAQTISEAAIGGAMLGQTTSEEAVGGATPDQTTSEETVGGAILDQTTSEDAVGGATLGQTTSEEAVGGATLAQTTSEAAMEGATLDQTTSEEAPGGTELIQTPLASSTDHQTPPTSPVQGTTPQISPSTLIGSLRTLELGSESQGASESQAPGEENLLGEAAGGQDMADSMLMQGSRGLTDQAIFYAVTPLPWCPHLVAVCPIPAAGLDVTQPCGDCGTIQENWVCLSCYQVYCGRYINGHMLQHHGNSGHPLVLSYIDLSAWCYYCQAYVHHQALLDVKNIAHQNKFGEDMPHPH

Estrogen receptor = target: T2, Estrogen receptor (Homo sapiens, UniProt P03372); test: Displacement of fluorescent estradiol from full-length ERalpha (unknown origin) measured after 2 hrs by fluorescence polarization assay
T2 sequence (P03372 whole entry): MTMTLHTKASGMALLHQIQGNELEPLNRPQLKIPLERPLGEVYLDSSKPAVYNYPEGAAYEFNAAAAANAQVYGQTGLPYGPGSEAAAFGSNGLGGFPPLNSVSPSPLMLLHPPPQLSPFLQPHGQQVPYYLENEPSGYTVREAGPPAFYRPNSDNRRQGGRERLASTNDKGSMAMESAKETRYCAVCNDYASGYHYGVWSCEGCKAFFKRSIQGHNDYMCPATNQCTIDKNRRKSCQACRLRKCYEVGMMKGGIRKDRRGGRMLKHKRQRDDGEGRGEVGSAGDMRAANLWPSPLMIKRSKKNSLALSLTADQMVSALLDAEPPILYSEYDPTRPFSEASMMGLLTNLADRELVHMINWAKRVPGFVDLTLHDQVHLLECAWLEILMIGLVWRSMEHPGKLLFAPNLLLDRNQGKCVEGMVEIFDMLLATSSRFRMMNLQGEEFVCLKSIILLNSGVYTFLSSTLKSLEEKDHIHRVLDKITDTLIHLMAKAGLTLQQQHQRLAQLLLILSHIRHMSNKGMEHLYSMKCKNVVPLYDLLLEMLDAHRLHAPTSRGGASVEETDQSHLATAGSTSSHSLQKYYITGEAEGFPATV

MCF7 [2] = test: Antiproliferative activity against human MCF7 cells assessed as reduction in cell growth measured after 6 days by WST8 assay; format: functional; conditions: time 6 day
[3] = target: T3, Estrogen receptor (Homo sapiens) (UniProt P03372); test: Induction of ERalpha degradation in human MCF7 cells at 0.1 uM measured after 24 hrs by Western blot analysis; format: cell-based
T3 sequence (whole entry): T2 sequence (P03372 whole entry)

Ishikawa [4] = test: Induction of human ishikawa cells proliferation at 300 nM measured after 48 hrs by CCK8 assay; format: functional
[5] = Lipophilicity, logD of compound in n-octanol and phosphate buffer at pH 7.4 after 1.5 hrs by HPLC analysis; format: physicochemical
[6] = Stability in human liver microsomes assessed as half life; format: ADME, Microsome
in vitro = conditions: human, liver microsomes
Histone deacetylase 1 = Histone deacetylase 1 (Homo sapiens, UniProt Q13547); test: Inhibition of HDAC1 (unknown origin)
Histone deacetylase 1, sequence (Q13547 whole entry): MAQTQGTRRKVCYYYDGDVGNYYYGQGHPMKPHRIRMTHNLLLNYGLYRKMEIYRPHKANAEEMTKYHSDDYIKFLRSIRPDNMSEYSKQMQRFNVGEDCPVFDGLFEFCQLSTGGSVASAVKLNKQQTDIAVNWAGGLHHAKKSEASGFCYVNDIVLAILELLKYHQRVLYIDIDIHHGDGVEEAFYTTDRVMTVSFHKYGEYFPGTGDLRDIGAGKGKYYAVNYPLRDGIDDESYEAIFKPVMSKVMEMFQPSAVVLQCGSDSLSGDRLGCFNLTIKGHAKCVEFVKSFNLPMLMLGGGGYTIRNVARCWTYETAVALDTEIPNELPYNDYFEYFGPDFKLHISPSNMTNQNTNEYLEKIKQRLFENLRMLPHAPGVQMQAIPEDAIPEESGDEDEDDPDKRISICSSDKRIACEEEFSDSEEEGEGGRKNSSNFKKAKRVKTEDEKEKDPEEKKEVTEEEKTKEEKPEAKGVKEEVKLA

Histone deacetylase 4 = Histone deacetylase 4 (Homo sapiens, UniProt P56524); test: Inhibition of HDAC4 (unknown origin)
Histone deacetylase 4, sequence (P56524 whole entry): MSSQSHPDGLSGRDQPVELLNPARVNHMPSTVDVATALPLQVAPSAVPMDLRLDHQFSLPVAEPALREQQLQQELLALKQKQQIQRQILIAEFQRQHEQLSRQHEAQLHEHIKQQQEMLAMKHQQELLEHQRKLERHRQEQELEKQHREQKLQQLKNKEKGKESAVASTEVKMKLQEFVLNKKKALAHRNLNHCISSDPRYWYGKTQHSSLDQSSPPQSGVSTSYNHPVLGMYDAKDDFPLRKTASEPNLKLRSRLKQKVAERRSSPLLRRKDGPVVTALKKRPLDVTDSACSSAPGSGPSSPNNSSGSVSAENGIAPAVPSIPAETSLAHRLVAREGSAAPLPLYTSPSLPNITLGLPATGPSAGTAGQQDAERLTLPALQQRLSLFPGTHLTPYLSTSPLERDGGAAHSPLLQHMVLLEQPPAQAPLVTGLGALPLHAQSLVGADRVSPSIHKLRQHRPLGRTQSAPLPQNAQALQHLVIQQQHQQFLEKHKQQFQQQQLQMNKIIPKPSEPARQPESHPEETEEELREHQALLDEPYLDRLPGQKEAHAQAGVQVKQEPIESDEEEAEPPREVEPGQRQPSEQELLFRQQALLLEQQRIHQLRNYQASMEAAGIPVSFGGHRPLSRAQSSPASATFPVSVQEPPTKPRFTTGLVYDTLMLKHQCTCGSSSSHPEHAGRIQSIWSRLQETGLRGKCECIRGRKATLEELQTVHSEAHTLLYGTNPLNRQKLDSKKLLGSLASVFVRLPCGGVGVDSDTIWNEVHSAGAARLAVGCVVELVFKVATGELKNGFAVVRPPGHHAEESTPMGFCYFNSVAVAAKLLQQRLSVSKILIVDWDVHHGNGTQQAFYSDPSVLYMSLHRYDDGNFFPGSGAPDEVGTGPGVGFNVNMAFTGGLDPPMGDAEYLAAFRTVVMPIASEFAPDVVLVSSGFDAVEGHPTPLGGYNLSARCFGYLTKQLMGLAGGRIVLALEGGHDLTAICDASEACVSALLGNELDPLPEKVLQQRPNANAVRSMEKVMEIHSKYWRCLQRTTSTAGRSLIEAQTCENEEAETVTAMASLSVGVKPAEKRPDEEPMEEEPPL

[7] = target: T3, Estrogen receptor (Homo sapiens); test: Inhibition of ERalpha signaling in human MCF7 cells measured after 24 hrs by Western blot assay; format: cell-based; conditions: dose 10-10000 nM
MCF7 [8] = test: Antitumor activity against human MCF7 cells xenografted in BALB/c nude mouse assessed as TGI at 5 mg/kg/day, iv administered for 21 days; format: functional; conditions: 504 h, time 21 day, read-out: TGI
[9] = target: T4, Protein deacetylase HDAC6 (Homo sapiens) (UniProt Q9UBN7); test: Inhibition of HDAC6 in human MCF7 cells assessed as increase in intracellular acetylation level of alpha-tubulin after 24 hrs by Western blot analysis; format: cell-based; conditions: dose 10-1000 nM
T4 sequence (whole entry): T1 sequence (Q9UBN7 whole entry)

[10] = target: T3, Estrogen receptor (Homo sapiens); test: Antagonist activity at ERalpha in human MCF7 cells assessed as reduction in E2-induced PGR gene expression incubated for 24 hrs by qRT-PCR analysis; format: cell-based; conditions: filed as antagonist, dose 3-300 nM
[11] = target: T3, Estrogen receptor (Homo sapiens); test: Antagonist activity at ERalpha in human MCF7 cells assessed as reduction in E2-induced GREB1 gene expression incubated for 24 hrs by qRT-PCR analysis; format: cell-based; conditions: filed as antagonist, dose 3-300 nM
MCF7 [12] = test: Induction of apoptosis in human MCF7 cells at 0.1 uM incubated for 24 hrs by PI staining based flow cytometry analysis; format: functional, cell-based
[13] = target: T3, Estrogen receptor (Homo sapiens); test: Antagonist activity at ERalpha activity in human ishikawa cells assessed as reduction in PGR mRNA expression at 10 to 300 nM for 24 hrs; format: cell-based; conditions: filed as antagonist, dose 10-300 nM
Ishikawa [14] = test: Induction of human ishikawa cells proliferation at 39 to 10000 nM measured after 48 hrs by CCK8 assay; format: functional; conditions: dose 39-10000 nM
MDA-MB-231 [15] = test: Antiproliferative activity against human MDA-MB-231 cells assessed as reduction in cell growth measured after 2 days by CCK8 assay; format: functional, cell-based; conditions: MDA-MB-231, 48 h
[16] = target: Histone deacetylase (Homo sapiens) (UniProt Q13547+O15379+Q9UBN7+Q92769+Q9UQL6+Q8WUI4+Q9BY41+Q96DB2+P56524+Q9UKV0+Q969S8); test: Inhibition of HDAC in human MDA-MB-231 cells assessed as increase in alpha tubulin acetylation after 24 hrs by immunofluorescence assay; format: cell-based; conditions: dose 5.0 µM
MDA-MB-231 [17] = test: Antimigratory activity against human MDA-MB-231 cells measured after 48 hrs by scratch wound-healing assay; format: functional, cell-based
[18] = Stability in human plasma assessed as half life; format: ADME, cell-free
[19] = Toxicity in Balb/c mouse xenografted with human MCF7 cells assessed as body weight loss at 5 mg/kg/day, iv administered for 21 days; format: organism-based; conditions: in vivo, 504 h, time 21 day
Mus musculus = test: In vivo induction of ERalpha degradation in human […] cells xenografted in BALB/c mouse assessed as decrease in ERalpha level at 5 mg/kg/day, iv administered for 21 days by Western blot analysis; format: functional, organism-based; conditions: time 21.0 day
[20] = target: T3, Estrogen receptor (Homo sapiens); test: Inhibition of ERalpha signaling in human MCF7 cells at 1 uM measured after 24 hrs by Western blot assay; format: cell-based
[21] = target: T3, Estrogen receptor (Homo sapiens); test: Inhibition of ERalpha signaling in human MCF7 cells at 10 uM measured after 24 hrs by Western blot assay; format: cell-based
[22] = Toxicity in Balb/c mouse xenografted with human MCF7 cells assessed as change in organ morphology at 5 mg/kg/day, iv administered for 21 days by H and E staining based analysis; format: organism-based; conditions: in vivo, 504 h, time 21 day

SMILES: CC(C)(F)CN1CCc2cc(O)ccc2C1c1ccc(OC2CN(CC(=O)NO)C2)cc1 (stereo unspecified)
- IC50 [1]: 175 nM
- IC50 (Estrogen receptor): 78.2 nM
- GI50 (MCF7 [2]; Homo sapiens, MCF7, 144 h): 1820 nM
- Activity [3]: 32%

SMILES: O=C(CCCCCCC(=O)Nc1ccccc1)NO [VORINOSTAT]
- GI50 (MCF7 [2]): 1250 nM

SMILES: C[C@]12CC[C@@H]3c4ccc(O)cc4C[C@@H](CCCCCCCCC[S+]([O-])CCCC(F)(F)C(F)(F)F)[C@H]3[C@@H]1CC[C@@H]2O (stereo partly specified) [FULVESTRANT]
- GI50 (MCF7 [2]; Homo sapiens, MCF7, 144 h): 540 nM
- Activity (Ishikawa [4]): Active
- logD at 1.5 h [5]: 6.8
- half-life [6]: 1.56 min
- CLint scaled (in vitro): 1150 mL/min/kg

SMILES: CC(C)(F)CN1CCc2cc(O)ccc2C1c1ccc(OCCCCCC(=O)NO)cc1 (stereo unspecified)
- IC50 [1]: 65.9 nM
- IC50 (Estrogen receptor): 102 nM
- GI50 (MCF7 [2]; Homo sapiens, MCF7, 144 h): 950 nM
- Activity [3]: 31%

SMILES: CC(C)(F)CN1CCc2cc(O)ccc2C1c1ccc(OCCCCCCC(=O)NO)cc1 (stereo unspecified)
- IC50 [1]: 62.8 nM
- IC50 (Histone deacetylase 1): 582 nM
- IC50 (Histone deacetylase 4): > 1000 nM
- IC50 (Estrogen receptor): 90.8 nM
- inhibition [7]: Dose-Dependent Effect
- GI50 (MCF7 [2]; Homo sapiens, MCF7, 144 h): 170 nM
- Activity [3]: 57%
- inhibition in vivo at 5 mg/kg/day (MCF7 [8]): 58%
- inhibition [9]: Dose-Dependent Effect
- Activity [10]: Dose-Dependent Effect
- Activity [11]: Dose-Dependent Effect
- Activity (MCF7 [12]): Active
- Activity [13]: Active
- Activity (Ishikawa [14]): inactive
- IC50 (MDA-MB-231 [15]): 380 nM
- inhibition [16]: Dose-Dependent Effect
- Activity (MDA-MB-231 [17]): Active
- logD at 1.5 h [5]: 2.49
- half-life [6]: 18.8 min
- half-life [18]: 458 min
- Activity [19]: Non-Toxic
- inhibition (Mus musculus): Active
- inhibition [20]: Active
- inhibition [21]: 100%
- Activity [22]: Non-Toxic
- CLint scaled (in vitro): 132 mL/min/kg

SMILES: CC(C)(F)CN1CCc2cc(O)ccc2C1c1ccc(C(=O)NO)cc1 (stereo unspecified)
- IC50 (Estrogen receptor): 96.3 nM
- GI50 (MCF7 [2]; Homo sapiens, MCF7, 144 h): 230 nM
- Activity [3]: 5%

SMILES: CC(C)(F)CN1CCc2cc(O)ccc2C1c1ccc(OCCCOc2ccc(C(=O)NO)cc2)cc1 (stereo unspecified)
- IC50 (Estrogen receptor): 132 nM
- GI50 (MCF7 [2]; Homo sapiens, MCF7, 144 h): 460 nM
- Activity [3]: inactive
